Reference: ChEMBL document CHEMBL1201862, “PubChem BioAssay data set” (2004)
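Five concentrations, 48 hours, 96-well plates. GI50 marks 50% less growth.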 The source made the active and inactive calls. Cut-off read from the data, not from the text of the source: active = GI50 up to about 1.1 µM and inactive = higher.

Columns and labels:
Test in all cases: DTP human tumour cell line panel, 48 h
K562 = system: K562
MOLT-4 = system: MOLT-4
NCI-H23 = system: NCI-H23
MDA-N = system: MDA-N
MDA-MB-231 = system: MDA-MB-231
UO-31 = system: UO-31
SNB-75 = system: SNB-75
BT-549 = system: BT-549
A549 = system: A549
HCT-116 = system: HCT-116
A498 = system: A498
NCI-H522 = system: NCI-H522
LOX IMVI = system: LOX IMVI
TK-10 = system: TK-10
NCI-H460 = system: NCI-H460
HT-29 = system: HT-29
RPMI-8226 = system: RPMI-8226
SF-539 = system: SF-539
KM12 = system: KM12
RXF 393 = system: RXF 393

Measured: GI50

O=C(/N=N/c1ccccc1Cl)NNc1ccccc1Cl
inactive: K562 27.8 µM | MOLT-4 29.3 µM | NCI-H23 50 µM | MDA-N 36.5 µM | MDA-MB-231 54.3 µM | UO-31 21.8 µM | SNB-75 > 100 µM | BT-549 > 10 µM | A549 55.5 µM | HCT-116 20.5 µM | A498 29 µM | NCI-H522 23.6 µM | LOX IMVI 23.4 µM | TK-10 50.9 µM | NCI-H460 65 µM | HT-29 93.8 µM | RPMI-8226 24.7 µM

COc1ccc(P2(=S)Oc3ccc(C(c4ccccc4)(c4ccccc4)c4ccccc4)cc3O2)cc1 (stereo not drawn)
inactive: K562 17.8 µM | MOLT-4 19.6 µM | NCI-H23 16.9 µM | MDA-N 18.5 µM | MDA-MB-231 21.2 µM | UO-31 17 µM | SF-539 19.9 µM | SNB-75 13.7 µM | BT-549 24.9 µM | A549 16.6 µM | HCT-116 17.8 µM | A498 17.7 µM | NCI-H522 16.7 µM | LOX IMVI 14.5 µM | KM12 15 µM | TK-10 19.1 µM | NCI-H460 18.6 µM | HT-29 18.8 µM | RPMI-8226 23 µM

CC(=O)OCCCCN1C(=O)CSc2ccccc21
inactive: MOLT-4 > 100 µM | MDA-N > 100 µM | UO-31 76.7 µM | SF-539 > 100 µM | SNB-75 > 100 µM | BT-549 4.2 µM | A549 > 100 µM | HCT-116 > 100 µM | A498 > 100 µM | NCI-H522 > 100 µM | LOX IMVI > 100 µM | KM12 > 100 µM | TK-10 > 100 µM | NCI-H460 > 100 µM | RXF 393 > 100 µM | RPMI-8226 > 100 µM

Cc1ccc(C(=O)N/N=C(\N=N\c2ccccc2[N+](=O)[O-])c2ccc(N(C)C)cc2)cc1
inactive: K562 > 100 µM | MOLT-4 > 100 µM | NCI-H23 > 100 µM | MDA-N > 100 µM | MDA-MB-231 > 100 µM | UO-31 89.1 µM | SF-539 > 100 µM | BT-549 > 100 µM | A549 > 100 µM | HCT-116 > 100 µM | NCI-H522 > 100 µM | LOX IMVI > 100 µM | KM12 > 100 µM | TK-10 > 100 µM | NCI-H460 66.8 µM | HT-29 > 100 µM | RPMI-8226 > 100 µM

Cc1cc2nc(N3C(=O)/C(=C/c4ccc(Cl)cc4)N=C3c3ccccc3)sc2cc1C
inactive: K562 32.4 µM | MOLT-4 53.8 µM | MDA-N 12.5 µM | MDA-MB-231 50 µM | UO-31 26.8 µM | SF-539 18.7 µM | SNB-75 22.3 µM | BT-549 26.4 µM | A549 30 µM | HCT-116 18.4 µM | A498 32.9 µM | LOX IMVI 20.5 µM | KM12 16.3 µM | TK-10 39.3 µM | NCI-H460 23.7 µM | RXF 393 14.6 µM | HT-29 23.9 µM | RPMI-8226 35.9 µM

COc1cc(-c2nc(N)c(C#N)c3c2CCS(=O)(=O)c2ccc(C)cc2-3)cc(OC)c1OC
inactive: K562 > 100 µM | NCI-H23 25.4 µM | MDA-N > 100 µM | MDA-MB-231 17.3 µM | UO-31 > 100 µM | SNB-75 16.7 µM | BT-549 53 µM | A549 > 100 µM | HCT-116 > 100 µM | A498 29.4 µM | NCI-H522 > 100 µM | LOX IMVI > 100 µM | KM12 > 100 µM | TK-10 9.98 µM | NCI-H460 > 100 µM | HT-29 > 100 µM | RPMI-8226 > 100 µM

O=[N+]([O-])c1ccc(CSc2nncc3[nH]cnc23)cc1
inactive: K562 84.9 µM | MOLT-4 > 100 µM | NCI-H23 > 100 µM | MDA-N > 100 µM | MDA-MB-231 > 100 µM | UO-31 33.4 µM | SF-539 > 100 µM | SNB-75 80.2 µM | BT-549 85.3 µM | A549 > 100 µM | HCT-116 > 100 µM | A498 > 100 µM | NCI-H522 > 100 µM | LOX IMVI > 100 µM | KM12 > 100 µM | TK-10 > 100 µM | HT-29 > 100 µM | RPMI-8226 > 100 µM

O=C(c1ccccc1)C1N=NCC1c1ccc([N+](=O)[O-])cc1 (stereo not drawn)
inactive: K562 32.5 µM | MOLT-4 22.4 µM | NCI-H23 36.1 µM | MDA-N 29.6 µM | MDA-MB-231 > 100 µM | UO-31 30.1 µM | SF-539 58.3 µM | SNB-75 16.7 µM | BT-549 24.2 µM | A549 37.2 µM | HCT-116 51.8 µM | A498 39 µM | LOX IMVI 36.6 µM | KM12 45.4 µM | TK-10 34 µM | NCI-H460 38.1 µM | HT-29 36.6 µM | RPMI-8226 29.9 µM

O=C(c1ccccc1)c1ccc(N2C(=O)/C(=C/c3cccc([N+](=O)[O-])c3)N=C2c2ccccc2)c(N2C(=O)/C(=C/c3cccc([N+](=O)[O-])c3)N=C2c2ccccc2)c1
inactive: K562 31.7 µM | MOLT-4 20.5 µM | MDA-N 21.7 µM | MDA-MB-231 > 100 µM | UO-31 66.7 µM | SF-539 26.3 µM | SNB-75 15.1 µM | BT-549 35.5 µM | A549 11 µM | HCT-116 39.4 µM | A498 19.3 µM | LOX IMVI 42 µM | KM12 11 µM | TK-10 42.5 µM | NCI-H460 5.28 µM | HT-29 41.9 µM | RPMI-8226 12.8 µM

CCC(CCCN)Nc1cc(OC)cc2cccnc12 (stereo not drawn)
inactive: K562 57 µM | MOLT-4 > 10 µM | MDA-N > 100 µM | MDA-MB-231 53.5 µM | UO-31 70 µM | SF-539 > 100 µM | SNB-75 31.1 µM | BT-549 > 100 µM | A549 > 100 µM | HCT-116 > 100 µM | A498 > 100 µM | LOX IMVI > 100 µM | KM12 > 100 µM | TK-10 > 100 µM | NCI-H460 > 100 µM | RXF 393 41.3 µM | HT-29 32.4 µM

COc1cc(/C=N/c2ccc(S(N)(=O)=O)cc2)cc(OC)c1
inactive: K562 42.1 µM | MOLT-4 36.9 µM | NCI-H23 > 50 µM | MDA-N 26.5 µM | MDA-MB-231 20.1 µM | UO-31 > 50 µM | SF-539 25.3 µM | SNB-75 25.6 µM | BT-549 > 50 µM | A549 > 50 µM | HCT-116 19.8 µM | A498 > 50 µM | LOX IMVI 46.6 µM | KM12 30.1 µM | TK-10 > 50 µM | NCI-H460 > 50 µM | RXF 393 > 50 µM | HT-29 > 50 µM | RPMI-8226 28 µM
